Experimental data taken from patent publication US7138361B2, “Herbicidal heterocycles” (E. I. du Pont de Nemours and Company, priority 2000, dated 2006).

Tests used:
Format in all cases: in vivo
[1] = system: Sunflower; experiment: Test C preemergence; settings: Rate 500 g/ha, visual evaluation after 12 to 14 days
[2] = system: lambsquarters (Chenopodium album); experiment: Test B postemergence; settings: Rate 500 g/ha, scale 0 to 100, 0 is no effect, 100 is complete control, 13 to 15 days
Outline: (§1)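 Post-treatment, species sat 13–15 days under greenhouse conditions before visual scoring against controls, 0 (no effect) through 100 (complete control). Application preemergence to sown seeds or postemergence at 1- to 4-leaf stage, using a non-phytotoxic solvent/surfactant formulation.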

[3] = system: crabgrass (Digitaria sanguinalis); experiment: Test B postemergence; settings: 13 to 15 days
Outline: as §1

[4] = system: cocklebur (Xanthium strumarium); experiment: Test B postemergence; settings: 13 to 15 days
Outline: as §1

[5] = system: wild oat (Avena fatua); experiment: Test B postemergence; settings: Rate 500 g/ha, scale 0 to 100, 0 is no effect, 100 is complete control, 13 to 15 days
Outline: as §1

[6] = system: pigweed (Amaranthus retroflexus); experiment: Test C preemergence
Outline: (§2)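 Each compound was dissolved in a non-phytotoxic solvent system containing a surfactant and sprayed either on freshly planted seeds (preemergence) or on young plants, 2 to 18 cm high (postemergence). Ratings after 12 to 14 greenhouse days ran from 0, no effect, to 100, complete control.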

[7] = system: lambsquarters (Chenopodium album); experiment: Test C preemergence
Outline: as §2

[8] = system: giant foxtail (Setaria faberii); experiment: Test C preemergence
Outline: as §2

[9] = system: kochia (Kochia scoparia); experiment: Test C preemergence
Outline: as §2

[10] = system: johnsongrass (Sorghum halepense); experiment: Test C preemergence
Outline: as §2

[11] = system: Surinam grass (Brachiaria decumbens); experiment: Test C preemergence
Outline: as §2

[12] = system: woolly cupgrass (Eriochloa villosa); experiment: Test C preemergence
Outline: as §2

[13] = system: cocklebur (Xanthium strumarium); experiment: Test C preemergence
Outline: as §2

[14] = system: bermudagrass (Cynodon dactylon); experiment: Test C preemergence
Outline: as §2

[15] = system: soybean (Glycine max); experiment: Test C preemergence
Outline: as §2

[16] = system: common ragweed (Ambrosia elatior); experiment: Test C preemergence
Outline: as §2

[17] = system: Nightshade; experiment: Test C preemergence
[18] = system: Sunflower; experiment: Test C preemergence; settings: Rate 125 g/ha; scale 0 to 100, 0 no effect, 100 complete control
[19] = system: velvetleaf (Abutilon theophrasti); experiment: Test C preemergence
Outline: as §2

[20] = system: corn (Zea mays); experiment: Test C preemergence
Outline: as §2

[21] = Rate 125 g/ha, scale 0 (no effect) to 100 (complete control)
[22] = Rate 500 g/ha, scale 0 to 100, 0 is no effect, 100 is complete control
[23] = Rate 125 g/ha, scale 0 to 100, 0 no effect, 100 complete control
[24] = preemergence, Rate 62 g/ha, scale 0 to 100
[25] = preemergence, Rate 500 g/ha, visual evaluation after 12 to 14 days
[26] = preemergence, Rate 250 g/ha, scale 0 to 100, 0 no effect, 100 complete control

CCC(C)c1ccn(C2CCN(c3cccc(OC)c3)C2=O)n1 (stereo not drawn) [Compound 95]
Plant response rating (0 to 100), Sunflower [1]: 10 | Plant response rating, Lambsquarters [2]: 90 | Plant response rating, Crabgrass [3, 21]: 0 | Plant response rating, Crabgrass [3, 22]: 20 | Plant response rating, Cocklebur [4, 21]: 0 | Plant response rating, Cocklebur [4, 22]: 20 | Plant response rating, Wild Oat [5]: 0 | Plant response rating, Pigweed [6, 23]: 0 | Plant response rating, Pigweed [6, 24]: 100 | Plant response rating (0 to 100), Pigweed [6, 25]: 60 | Plant response rating, Pigweed [6, 26]: 0 | Plant response rating, Lambsquarters [7, 23]: 100 | Plant response rating, Lambsquarters [7, 24]: 100 | Plant response rating (0 to 100), Lambsquarters [7, 25]: 100 | Plant response rating, Lambsquarters [7, 26]: 100 | Plant response rating, Foxtail, Giant [8, 23]: 0 | Plant response rating, Foxtail, Giant [8, 24]: 0 | Plant response rating (0 to 100), Foxtail, Giant [8, 25]: 100 | Plant response rating, Foxtail, Giant [8, 26]: 0 | Plant response rating, Kochia [9, 23]: 100 | Plant response rating, Kochia [9, 24]: 100 | Plant response rating (0 to 100), Kochia [9, 25]: 100 | Plant response rating, Kochia [9, 26]: 100 | Plant response rating, Johnsongrass [10, 23]: 30 | Plant response rating, Johnsongrass [10, 24]: 30 | Plant response rating (0 to 100), Johnsongrass [10, 25]: 90 | Plant response rating, Johnsongrass [10, 26]: 60 | Plant response rating, Surinam grass [11, 23]: 40 | Plant response rating, Surinam grass [11, 24]: 40 | Plant response rating (0 to 100), Surinam grass [11, 25]: 100 | Plant response rating, Surinam grass [11, 26]: 50 | Plant response rating, Cupgrass, Woolly [12, 23]: 100 | Plant response rating, Cupgrass, Woolly [12, 24]: 50 | Plant response rating (0 to 100), Cupgrass, Woolly [12, 25]: 100 | Plant response rating, Cupgrass, Woolly [12, 26]: 100 | Plant response rating, Cocklebur [13, 23]: 0 | Plant response rating, Cocklebur [13, 24]: 0 | Plant response rating (0 to 100), Cocklebur [13, 25]: 0 | Plant response rating, Cocklebur [13, 26]: 0 | Plant response rating, Bermudagrass [14, 23]: 100 | Plant response rating, Bermudagrass [14, 24]: 100 | Plant response rating (0 to 100 where 0 is no effect and 100 is complete control), Bermudagrass [14, 25]: 100 | Plant response rating, Bermudagrass [14, 26]: 100 | Plant response rating, Soybean [15, 23]: 0 | Plant response rating, Soybean [15, 24]: 0 | Plant response rating (0 to 100), Soybean [15, 25]: 30 | Plant response rating, Soybean [15, 26]: 0 | Plant response rating, Ragweed, Common [16, 23]: 0 | Plant response rating, Ragweed, Common [16, 24]: 0 | Plant response rating (0 to 100), Ragweed, Common [16, 25]: 10 | Plant response rating, Ragweed, Common [16, 26]: 0 | Plant response rating, Nightshade ([17]; Rate 62 g/ha, scale 0 to 100): 0 | Plant response rating, Nightshade [17, 23]: 0 | Plant response rating, Nightshade ([17]; Rate 250 g/ha, scale 0 to 100, 0 no effect, 100 complete control): 0 | Plant response rating, Sunflower [18]: 0 | Plant response rating, Velvetleaf [19, 23]: 0 | Plant response rating, Velvetleaf [19, 24]: 0 | Plant response rating (0 to 100), Velvetleaf [19, 25]: 0 | Plant response rating, Velvetleaf [19, 26]: 0 | Plant response rating, Corn [20, 23]: 10 | Plant response rating, Corn [20, 24]: 10 | Plant response rating (0 to 100), Corn [20, 25]: 40 | Plant response rating, Corn [20, 26]: 40
